Article PMC11601876, “Manganese-based type I collagen-targeting MRI probe for in vivo imaging of liver fibrosis” (Research Square, 2024)

Tests used:
[1] = Kinetic inertness: Mn2+ dissociation upon Zn2+ challenge; format: physicochemical; conditions: 0.5 mM Mn2+ (0.167 mM Mn-CBP20), 10 mM Zn(OTf)2, pH 7.4 50 mM Tris/18 mM citrate, 27 °C, monitored by r2 change at 1.4T
Description: Figure 2. In vitro assays for collagen binding and kinetic inertness.
To assess kinetic inertness to Mn^2+ release, we evaluated Mn^2+ dissociation kinetics upon challenge of 0.167 mM Mn-CBP20 (0.5 mM Mn^2+) with 10 mM Zn(OTf)2 in the presence of pH 7.4 50 mM Tris/ 18 mM citrate buffer, Figure 2B. The presence of a weak chelator such as citrate is required to maintain homogenous reaction conditions during the course of the measurement, as treatment of Mn-CBP20 with even 1 mol equiv. […] Mn^2+ dissociation was monitored by observing change in r2. Under this set of assay conditions, the r2 value associated with dissociated Mn^2+ (16.3 mM^−1s^−1) is approximately half that of Mn^2+ bound within Mn-CBP20. As positive control, we monitored Mn^2+ dissociation from the kinetically inert complex Mn-CDTA (r2 = 5.9 mM^−1s^−1).

[2] = rats; in words; cited from earlier work
Source text: Whole body PET-CT images recorded 1 and 7 days after [^52Mn]Mn-CBP20 injection are shown in Figure 6A and ex vivo ^52Mn biodistribution data are shown in Figure 6B and 6C and also tabulated in Supplementary Tables 1 and 2. The highest concentration of ^52Mn 1 day after injection is found in the kidneys, consistent with the expected renal elimination of the compound.

Row | half-life (t1/2) of Mn2+ dissociation [1] | Molecule | 52Mn uptake in salivary glands relative to other tissues [2]
1 | 15.5 h | O=C([O-])CN(CC(=O)[O-])C1CCCCC1N(CC(=O)[O-])CC(=O)[O-].[Mn+2] (centres unmarked) [Mn-CDTA] | –
2 | – | Mn-DPDP | high and persistent ^52Mn uptake in the salivary glands relative to other tissues
